Assay results from ChEMBL document CHEMBL4476878, “Galactokinase inhibitors” (2013).
Activity calls are given as the source filed them.

Columns and labels:
[1] = target: Galactokinase (Homo sapiens) (UniProt P51570); assay: Inhibition of His6-tagged recombinant human GALK expressed in Escherichia coli HMS174 (DE3) incubated for 60 mins using galactose and ATP by Kinase-Glo reagent based assay
[2] = test system: Saccharomyces cerevisiae; assay: Inhibition of Saccharomyces cerevisiae hexokinase
[3] = test system: Geobacillus stearothermophilus; assay: Inhibition of Bacillus stearothermophilus glucokinase
[4] = target: Galactokinase (Homo sapiens) (UniProt P51570); assay: Inhibition of His6-tagged recombinant human GALK expressed in Escherichia coli HMS174 (DE3) at 5 to 15 uM incubated for 60 mins using galactose and ATP by Kinase-Glo reagent based assay
[5] = target: Galactokinase (Homo sapiens) (UniProt P51570); assay: Inhibition of His6-tagged recombinant human GALK expressed in Escherichia coli HMS174 (DE3) by pyruvate kinase/lactate dehydrogenase-coupled assay
[6] = target: T1, 4-diphosphocytidyl-2-C-methyl-D-erythritol kinase (Escherichia coli (strain K12)) (UniProt P62615); assay: Inhibition of purified Escherichia coli CDP-ME kinase IspE expressed in Escherichia coli HMS174 at 10 to 50 uM by luciferase-luciferin based luminescence-based assay
T1 sequence (whole entry): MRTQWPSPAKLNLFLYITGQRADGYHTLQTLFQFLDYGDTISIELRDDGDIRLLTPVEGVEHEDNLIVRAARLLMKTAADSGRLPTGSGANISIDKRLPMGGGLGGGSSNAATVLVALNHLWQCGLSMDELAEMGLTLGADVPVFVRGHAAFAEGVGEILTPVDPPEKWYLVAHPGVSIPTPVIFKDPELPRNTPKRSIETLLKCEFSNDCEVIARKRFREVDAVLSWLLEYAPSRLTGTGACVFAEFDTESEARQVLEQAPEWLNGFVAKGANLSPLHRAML

Measured: inhibition

Galactokinase (Homo sapiens), sequence (P51570 whole entry): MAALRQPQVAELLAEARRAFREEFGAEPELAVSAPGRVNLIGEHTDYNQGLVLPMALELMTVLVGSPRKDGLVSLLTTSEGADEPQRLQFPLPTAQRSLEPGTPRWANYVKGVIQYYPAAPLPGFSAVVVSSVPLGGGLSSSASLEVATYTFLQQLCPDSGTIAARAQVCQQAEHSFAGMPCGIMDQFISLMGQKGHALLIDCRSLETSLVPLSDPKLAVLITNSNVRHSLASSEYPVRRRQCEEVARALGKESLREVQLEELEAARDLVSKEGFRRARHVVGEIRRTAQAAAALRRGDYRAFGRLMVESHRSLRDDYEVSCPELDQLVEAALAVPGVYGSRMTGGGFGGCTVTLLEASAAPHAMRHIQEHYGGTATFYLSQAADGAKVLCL

CC1=NOC(=O)/C1=C\c1ccc(-c2ccccc2)o1
active: [1] | [2] | [3]

Cc1c(O)c(C(=O)CC(C)C)c2oc3c(C(=O)CC(C)C)c(O)c(C)c(O)c3c2c1O
active: [1] | [2] | [3]

CC1(C)CCC2=C(O1)c1ccccc1C(=O)C2=O
active: [1] | [2] | [3]

Nc1ncnc2c1ncn2[C@@H]1O[C@H](COP(=O)(O)OP(=O)(O)OP(O)(O)=S)[C@@H](O)[C@H]1O
active: [4]

Oc1c(Cl)cc(Cl)c(Cl)c1Cc1c(O)c(Cl)cc(Cl)c1Cl
active: [5] | [1] | [2] | [3]

Cc1c(N=c2c(=O)c3ccccc3c2=O)c(=O)n(-c2ccccc2)n1C
active: [1] | [2] | [3]

Cc1cccc(OCCOc2ccc(Br)cc2/C=C2\SC(=S)NC2=O)c1
active: [1] | [2] | [3]

O=C1OC2(CCCC2)OC(=O)C1=Cc1ccc(OCc2ccccc2)cc1
active: [1] | [2] | [3]

COC1=C(N)C(=O)c2nc(-c3nc(C(=O)O)c(C)c(-c4ccc(OC)c(OC)c4O)c3N)ccc2C1=O
active: [5] | [1] | [2] | [3]

O=C1NC(=S)N(c2cccc3ccccc23)C(=O)/C1=C/c1c[nH]c2ccccc12
active: [1] | [2] | [3]

c1ccc(-c2cnc3nonc3n2)cc1
active: [1] | [2] | [3]

CC(C)(C)C(=O)Nc1ccc2c(c1)C(=O)C(=O)c1ccccc1-2
active: [5] | [1] | [2] | [3]

CCSC1=C(C#N)C(=O)NC(/C=C/c2ccccc2)S1 (stereo not drawn)
active: [1] | [2] | [3]

CC(C)OC1(O)C(=O)c2ccccc2C(=O)C1(O)OC(C)C (stereo not drawn)
active: [1] | [2] | [3]

CC(C)(C)c1cc(/C=C2/SC(=S)NC2=O)cc(C(C)(C)C)c1O
active: [1] | [2] | [3]

O=C1OC(c2ccccc2)OC(=O)C1=C/C=C/c1ccccc1 (stereo not drawn)
active: [1] | [2] | [3]

Cn1c(=S)[nH]c2sc3c(c2c1=O)CCC(C(C)(C)C)C3 (stereo not drawn)
active: [1] | [2] | [3]

O=C1C(NS(=O)(=O)c2ccccc2)=C/C(=N\S(=O)(=O)c2ccc(F)cc2)c2ccccc21
active: [1] | [2] | [3]

N#CC1=C(SCc2ccccc2)SC(c2ccc(C(=O)O)cc2)NC1=O (stereo not drawn)
active: [1] | [2] | [3]

N#Cc1c(-c2ccc(Cl)cc2)nc(SCc2ccccc2)[nH]c1=S
active: [1] | [2] | [3]

O=C1C=C2N(c3ccccc3)CCOC2(O)c2ccccc21 (stereo not drawn)
active: [1] | [2] | [3]

O=C1Nc2ccc(I)cc2/C1=C/c1cc(Br)c(O)c(Br)c1
active: [1] | [2] | [3]

CC1(c2ccccc2)CC(C)(C)N2C(=O)/C(=C3/SC(=O)NC3=O)c3cccc1c32 (stereo not drawn)
active: [5] | [1] | [2] | [3]

CCOc1cccc(NC(=O)C2CC(=O)N(/N=C(\C)c3ccc(Br)s3)C(=N)S2)c1 (stereo not drawn)
active: [1] | [2] | [3]

O=C1OC2(c3ccccc31)c1cc(I)c(O)c(I)c1Oc1c2cc(I)c(O)c1I
active: [1] | [2] | [3]

O=C(NC1(O)C(=O)c2ccccc2C1=O)c1cnn(-c2ccccc2)c1C(F)(F)F
active: [1] | [2] | [3]

CC1=NN(c2cccc(C(=O)O)c2)C(=O)/C1=C/c1ccc(-c2cccc(Cl)c2C)o1
active: [1] | [2] | [3]

Cc1ccc(CSc2nc(C(=O)O)ccc2C#N)cc1
active: [1] | [2] | [3]

N#CC1=C(SCc2ccccc2)SC(c2ccccc2O)NC1=O (stereo not drawn)
active: [1] | [2] | [3]

COc1cc(/C=C2/SC(=S)NC2=O)ccc1OC(=O)c1cccc(C)c1
active: [1] | [2] | [3]

N#Cc1ccc(CSc2nc(-c3cccs3)c3c(c2C(=O)O)CCCC3)cc1
active: [1] | [2] | [3]

COC(=O)CSC1=C(C#N)C(=O)NC(c2ccccc2O)S1 (stereo not drawn)
active: [1] | [2] | [3]

Cc1cc2c(C(C)C)c(O)c(O)c(C=O)c2c(O)c1-c1c(C)cc2c(C(C)C)c(O)c(O)c(C=O)c2c1O
active: [6]

Oc1c(Cl)cc(Cl)cc1Sc1cc(Cl)cc(Cl)c1O
active: [1] | [2] | [3]

O=C1NC(=O)N(c2ccccc2)C(=O)/C1=C/c1c2ccccc2cc2ccccc12
active: [1] | [2] | [3]

O=C1O[C@H](c2ccccc2)[C@H](c2ccccc2)N2[C@H]1[C@@H](C(=O)O)[C@]1(C(=O)Nc3ccc(C#CC4(O)CCCCCC4)cc31)[C@H]2c1ccc(OCCO)cc1
active: [1] | [2] | [3]
